# Data taken from paper PMC6979384, “Characterization of the plant homeodomain (PHD) reader family for their histone tail interactions” (Epigenetics & Chromatin, 2020).
# Where no end group is shown, it is not given here. [ ]: non-standard residue; d: D form. Lys(Me3) = C[N+](C)(C)CCCC[C@H](N)C(=O)O; Me3 = trimethyl (on lysine side chain); Lys(Me) = CNCCCC[C@H](N)C(=O)O
# Key:
# Assay in all cases: Histone peptide microarray
# Assay type in all cases: binding, human
# Conditions in all cases: sheet "Array Heatmap"
# PHRF1 (RP) = tested on: PHRF1 (RP)
# In short: (§1)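 Binding read as mean relative signal from 4 replicates; microarray held 293 synthetic histone peptides with single or combinatorial PTMs. Each GST-tagged PHD reader was applied at 0.5 μM using the optimized Petell protocol.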
# AIRE (PP) = tested on: AIRE (PP)
# In short: as §1
# PHF21A = tested on: PHF21A
# In short: as §1
# KDM5A (1) = tested on: KDM5A (1)
# In short: as §1
# PHF2 = tested on: PHF2
# In short: as §1
# RAG2 = tested on: RAG2
# In short: as §1
# KDM5B (1) = tested on: KDM5B (1)
# In short: as §1
# MLL5 = tested on: MLL5
# In short: as §1
# KDM7A = tested on: KDM7A
# In short: as §1
# DPF2 (PPC2W2) = tested on: DPF2 (PPC2W2)
# In short: as §1
# MORC3 (CW) = tested on: MORC3 (CW)
# In short: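 Steps: express and purify GST-tagged PHD reader; incubate 0.5 μM protein on a peptide microarray (293 histone peptides, single or combined PTMs) following an optimized protocol; average signal across 4 replicates.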
# ING3 = tested on: ING3
# In short: as §1
# PHF13 = tested on: PHF13
# In short: as §1
# PHF8 = tested on: PHF8
# In short: as §1
# PHF23 = tested on: PHF23
# In short: as §1
# ING5 = tested on: ING5
# In short: as §1
# ING1 = tested on: ING1
# In short: as §1
# BAZ2B = tested on: BAZ2B
# In short: as §1
# CHD5 (PPCC) = tested on: CHD5 (PPCC)
# In short: as §1
# CHD4 (PPCC) = tested on: CHD4 (PPCC)
# In short: as §1
# KDM5A (3) = tested on: KDM5A (3)
# In short: as §1
# DIDO1 = tested on: DIDO1
# In short: as §1
# KDM5B (3) = tested on: KDM5B (3)
# In short: as §1
# CHD5 (PCC) = tested on: CHD5 (PCC)
# In short: as §1
# TRIM66 (PB) = tested on: TRIM66 (PB)
# In short: as §1
# ING4 = tested on: ING4
# In short: as §1
# ING2 = tested on: ING2
# In short: as §1
# SP140L = tested on: SP140L
# In short: as §1
# KDM4C (TTP) = tested on: KDM4C (TTP)
# In short: as §1
# TAF3 = tested on: TAF3
# In short: as §1
# BPTF (PB) = tested on: BPTF (PB)
# In short: as §1
# [1] = GST-tagged reader, histone peptide array, total n = 4
substance,measurement,setting,value
"H3K56me3 (52-61): H3 52-61 (RRYQK(Me3)STELL; UniProt P68431 53-62, looked up, fragment)","Array Heatmap signal, PHRF1 (RP)","PHRF1 (RP); GST-tagged PHRF1 (RP), arrays performed twice, total replicate number n = 4",0.4158
same,"Array Heatmap signal, AIRE (PP)","AIRE (PP); GST-tagged AIRE (PP), arrays performed twice, total replicate number n = 4",0.4132
same,"Array Heatmap signal, PHF21A","PHF21A; GST-tagged PHF21A, arrays performed twice, total replicate number n = 4",0.4399
same,"Array Heatmap signal, KDM5A (1)","KDM5A (1); GST-tagged KDM5A (1), arrays performed twice, total replicate number n = 4",0.4335
same,"Array Heatmap signal, PHF2","PHF2; GST-tagged PHF2, arrays performed twice, total replicate number n = 4",0.4592
same,"Array Heatmap signal, RAG2","RAG2; GST-tagged RAG2, arrays performed twice, total replicate number n = 4",0.2347
same,"Array Heatmap signal, KDM5B (1)","KDM5B (1); GST-tagged KDM5B (1), arrays performed twice, total replicate number n = 4",0.6393
same,"Array Heatmap signal, MLL5","MLL5; GST-tagged MLL5, arrays performed twice, total replicate number n = 4",0.5095
same,"Array Heatmap signal, KDM7A","KDM7A; GST-tagged KDM7A, arrays performed twice, total replicate number n = 4",0.3588
same,"Array Heatmap signal, DPF2 (PPC2W2)","DPF2 (PPC2W2); GST-tagged DPF2 (PPC2W2), arrays performed twice, total replicate number n = 4",0.6082
same,"Array Heatmap signal, MORC3 (CW)","MORC3 (CW); GST-tagged MORC3 (CW), arrays performed twice, total replicate number n = 4",0.3573
same,"Array Heatmap signal, ING3","ING3; GST-tagged ING3, arrays performed twice, total replicate number n = 4",0.4641
same,"Array Heatmap signal, PHF13","PHF13; GST-tagged PHF13, arrays performed twice, total replicate number n = 4",0.5794
same,"Array Heatmap signal, PHF8","PHF8; GST-tagged PHF8, arrays performed twice, total replicate number n = 4",0.3607
same,"Array Heatmap signal, PHF23","PHF23; GST-tagged PHF23, arrays performed twice, total replicate number n = 4",0.5132
same,"Array Heatmap signal, ING5","ING5; GST-tagged ING5, arrays performed twice, total replicate number n = 4",0.3269
same,"Array Heatmap signal, ING1","ING1; GST-tagged ING1, arrays performed twice, total replicate number n = 4",0.5013
same,"Array Heatmap signal, BAZ2B","BAZ2B; GST-tagged BAZ2B, arrays performed twice, total replicate number n = 4",0.4232
same,"Array Heatmap signal, CHD5 (PPCC)","CHD5 (PPCC); GST-tagged CHD5 (PPCC), arrays performed twice, total replicate number n = 4",0.5162
same,"Array Heatmap signal, CHD4 (PPCC)","CHD4 (PPCC); GST-tagged CHD4 (PPCC), arrays performed twice, total replicate number n = 4",0.5342
same,"Array Heatmap signal, KDM5A (3)","KDM5A (3); GST-tagged KDM5A (3), arrays performed twice, total replicate number n = 4",0.4564
same,"Array Heatmap signal, DIDO1","DIDO1; GST-tagged DIDO1, arrays performed twice, total replicate number n = 4",0.6681
same,"Array Heatmap signal, KDM5B (3)","KDM5B (3); GST-tagged KDM5B (3), arrays performed twice, total replicate number n = 4",0.4529
same,"Array Heatmap signal, CHD5 (PCC)","CHD5 (PCC); GST-tagged CHD5 (PCC), arrays performed twice, total replicate number n = 4",0.7613
same,"Array Heatmap signal, TRIM66 (PB)","TRIM66 (PB); GST-tagged TRIM66 (PB), arrays performed twice, total replicate number n = 4",0.5682
same,"Array Heatmap signal, ING4","ING4; GST-tagged ING4, arrays performed twice, total replicate number n = 4",0.4217
same,"Array Heatmap signal, ING2","ING2; GST-tagged ING2, arrays performed twice, total replicate number n = 4",0.5755
same,"Array Heatmap signal, SP140L","SP140L; GST-tagged SP140L, arrays performed twice, total replicate number n = 4",0.3549
same,"Array Heatmap signal, KDM4C (TTP)","KDM4C (TTP); GST-tagged KDM4C (TTP), arrays performed twice, total replicate number n = 4",0.4664
same,"Array Heatmap signal, TAF3","TAF3; GST-tagged TAF3, arrays performed twice, total replicate number n = 4",0.2469
same,"Array Heatmap signal, BPTF (PB)","BPTF (PB); GST-tagged BPTF (PB), arrays performed twice, total replicate number n = 4",0.343
"H3K79me1: H3 74-84 (IAQDF[Lys(Me)]TDLRF; UniProt P68431 75-85, looked up, fragment) [Peptide H3K79me1]","Array Heatmap signal, PHRF1 (RP)",PHRF1 (RP); [1],0.4478
same,"Array Heatmap signal, AIRE (PP)",AIRE (PP); [1],0.5028
same,"Array Heatmap signal, PHF21A",PHF21A; [1],0.4933
same,"Array Heatmap signal, KDM5A (1)",KDM5A (1); [1],0.5083
same,"Array Heatmap signal, PHF2",PHF2; [1],0.4403
same,"Array Heatmap signal, RAG2",RAG2; [1],0.2827
same,"Array Heatmap signal, KDM5B (1)",KDM5B (1); [1],0.6942
same,"Array Heatmap signal, MLL5",MLL5; [1],0.6083
same,"Array Heatmap signal, KDM7A",KDM7A; [1],0.422
same,"Array Heatmap signal, DPF2 (PPC2W2)",DPF2 (PPC2W2); [1],0.6501
same,"Array Heatmap signal, MORC3 (CW)",MORC3 (CW); [1],0.4301
same,"Array Heatmap signal, ING3",ING3; [1],0.5268
same,"Array Heatmap signal, PHF13",PHF13; [1],0.6611
same,"Array Heatmap signal, PHF8",PHF8; [1],0.4078
same,"Array Heatmap signal, PHF23",PHF23; [1],0.5609
same,"Array Heatmap signal, ING5",ING5; [1],0.4005
same,"Array Heatmap signal, ING1",ING1; [1],0.5242
same,"Array Heatmap signal, BAZ2B",BAZ2B; [1],0.4958
same,"Array Heatmap signal, CHD5 (PPCC)",CHD5 (PPCC); [1],0.6031
same,"Array Heatmap signal, CHD4 (PPCC)",CHD4 (PPCC); [1],0.5797
same,"Array Heatmap signal, KDM5A (3)",KDM5A (3); [1],0.5745
same,"Array Heatmap signal, DIDO1",DIDO1; [1],0.782
same,"Array Heatmap signal, KDM5B (3)",KDM5B (3); [1],0.5123
same,"Array Heatmap signal, CHD5 (PCC)",CHD5 (PCC); [1],0.8253
same,"Array Heatmap signal, TRIM66 (PB)",TRIM66 (PB); [1],0.6065
same,"Array Heatmap signal, ING4",ING4; [1],0.4724
same,"Array Heatmap signal, ING2",ING2; [1],0.6117
same,"Array Heatmap signal, SP140L",SP140L; [1],0.3558
same,"Array Heatmap signal, KDM4C (TTP)",KDM4C (TTP); [1],0.5424
same,"Array Heatmap signal, TAF3",TAF3; [1],0.2923
same,"Array Heatmap signal, BPTF (PB)",BPTF (PB); [1],0.3836
"H3K79me3: H3 74-84 (IAQDF[Lys(Me3)]TDLRF; UniProt P68431 75-85, looked up, fragment) [Peptide H3K79me3]","Array Heatmap signal, PHRF1 (RP)",PHRF1 (RP); [1],0.4811
same,"Array Heatmap signal, AIRE (PP)",AIRE (PP); [1],0.4525
same,"Array Heatmap signal, PHF21A",PHF21A; [1],0.4782
same,"Array Heatmap signal, KDM5A (1)",KDM5A (1); [1],0.4539
same,"Array Heatmap signal, PHF2",PHF2; [1],0.5812
same,"Array Heatmap signal, RAG2",RAG2; [1],0.2475
same,"Array Heatmap signal, KDM5B (1)",KDM5B (1); [1],0.6382
same,"Array Heatmap signal, MLL5",MLL5; [1],0.5385
same,"Array Heatmap signal, KDM7A",KDM7A; [1],0.3373
same,"Array Heatmap signal, DPF2 (PPC2W2)",DPF2 (PPC2W2); [1],0.6998
same,"Array Heatmap signal, MORC3 (CW)",MORC3 (CW); [1],0.3856
same,"Array Heatmap signal, ING3",ING3; [1],0.4762
same,"Array Heatmap signal, PHF13",PHF13; [1],0.6042
same,"Array Heatmap signal, PHF8",PHF8; [1],0.3681
same,"Array Heatmap signal, PHF23",PHF23; [1],0.5318
same,"Array Heatmap signal, ING5",ING5; [1],0.3656
same,"Array Heatmap signal, ING1",ING1; [1],0.5877
same,"Array Heatmap signal, BAZ2B",BAZ2B; [1],0.458
same,"Array Heatmap signal, CHD5 (PPCC)",CHD5 (PPCC); [1],0.5544
same,"Array Heatmap signal, CHD4 (PPCC)",CHD4 (PPCC); [1],0.5886
same,"Array Heatmap signal, KDM5A (3)",KDM5A (3); [1],0.4757
same,"Array Heatmap signal, DIDO1",DIDO1; [1],0.7358
same,"Array Heatmap signal, KDM5B (3)",KDM5B (3); [1],0.4402
same,"Array Heatmap signal, CHD5 (PCC)",CHD5 (PCC); [1],0.767
same,"Array Heatmap signal, TRIM66 (PB)",TRIM66 (PB); [1],0.557
same,"Array Heatmap signal, ING4",ING4; [1],0.4605
same,"Array Heatmap signal, ING2",ING2; [1],0.6086
same,"Array Heatmap signal, SP140L",SP140L; [1],0.3582
same,"Array Heatmap signal, KDM4C (TTP)",KDM4C (TTP); [1],0.4877
same,"Array Heatmap signal, TAF3",TAF3; [1],0.2594
same,"Array Heatmap signal, BPTF (PB)",BPTF (PB); [1],0.3567
